The record followed here is patent US20230265151A1, “GIP/GLP1 CO-AGONIST COMPOUNDS” (priority 2020, published 2023).

Read-outs that look alike come from different tables or passages of the source. Bounds are passed on as bounds.

For one test, the target named is T1, hGIPR (Homo sapiens, UniProt P48546).
T1 construct: expressed in transfected cells
T1 sequence (P48546 22-466): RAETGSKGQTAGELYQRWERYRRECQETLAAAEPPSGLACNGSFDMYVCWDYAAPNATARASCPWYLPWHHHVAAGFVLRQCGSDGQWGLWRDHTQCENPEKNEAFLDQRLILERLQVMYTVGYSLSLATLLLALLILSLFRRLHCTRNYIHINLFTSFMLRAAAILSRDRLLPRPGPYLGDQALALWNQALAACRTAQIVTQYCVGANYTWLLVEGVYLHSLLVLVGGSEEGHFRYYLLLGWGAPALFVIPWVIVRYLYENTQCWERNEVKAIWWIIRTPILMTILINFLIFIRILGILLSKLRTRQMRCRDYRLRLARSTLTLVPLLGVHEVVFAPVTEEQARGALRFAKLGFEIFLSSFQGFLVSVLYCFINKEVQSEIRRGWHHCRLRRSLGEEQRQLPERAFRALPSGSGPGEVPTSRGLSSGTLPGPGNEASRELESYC
Briefly: Functional cAMP formation (HTRF) in HEK-293 clonal cells expressing hGIPR, 0.1% bovine casein, without or with 1.0% human serum albumin. It counts as cell-based. Particulars: for EC50: cAMP, 0.1% bovine casein (no human serum albumin), geometric mean. The procedure, abridged: (§1)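 Readings of the HTRF 665/620 nm ratio, which falls as cAMP rises, were converted to nM cAMP using a standard curve after 30 min peptide exposure at 37° C.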
In general terms: Changes in cAMP serve as a functional read-out for many G protein-coupled receptors.

For another test, the target named is T2, hGCGR (Homo sapiens, UniProt P47871).
T2 construct: expressed in transfected cells
Nature of the test: Functional cAMP formation (HTRF) in HEK-293 clonal cells expressing hGCGR, 0.1% bovine casein, without or with 1.0% human serum albumin. It counts as cell-based. The following applies: geometric mean. The procedure, abridged: as §1

The mark [1] stands for this setting: HEK293, percent of maximal response to GIP(1-42)NH2, 37° C., 0.1% bovine casein, arithmetic mean, read-out: hGIPR Emax, % ± SEM.
Where [2] appears, read: cAMP, incubated at 37° C., 0.1% bovine casein (no human serum albumin), read-out: hGCGR EC50, nM (SEM, n).
[3] abbreviates: incubated at 37° C., read-out: hGIPR EC50, nM (SEM, n).

T2 sequence (P47871 26-477): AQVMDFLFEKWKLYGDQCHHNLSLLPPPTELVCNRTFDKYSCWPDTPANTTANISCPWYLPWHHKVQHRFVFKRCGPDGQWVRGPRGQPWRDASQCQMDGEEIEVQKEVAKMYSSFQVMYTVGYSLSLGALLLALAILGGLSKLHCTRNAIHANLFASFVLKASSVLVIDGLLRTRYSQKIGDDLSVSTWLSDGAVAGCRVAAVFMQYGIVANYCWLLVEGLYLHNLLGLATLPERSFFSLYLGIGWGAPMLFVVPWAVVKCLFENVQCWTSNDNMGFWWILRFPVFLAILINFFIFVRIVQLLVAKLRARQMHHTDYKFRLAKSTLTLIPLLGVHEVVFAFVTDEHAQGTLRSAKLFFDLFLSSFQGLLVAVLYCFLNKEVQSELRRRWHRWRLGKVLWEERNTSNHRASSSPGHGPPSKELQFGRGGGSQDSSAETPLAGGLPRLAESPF

The Emax is the greatest response seen or fitted, relative to the assay's reference. Usually EC50 stands for the midpoint of the concentration-response curve. Consider `CC[C@H](C)[C@H](NC(=O)[C@H](CC(C)C)NC(=O)[C@](C)(Cc1ccc(O)cc1)NC(=O)[C@@H](CCC(=O)O)NC(=O)[C@@H](NC(=O)[C@H](Cc1ccccc1)NC(=O)[C@H](CCC(=O)O)NC(=O)[C@](C)(Cc1ccccc1)NC(=O)[C@H](CCC(N)=O)NC(=O)[C@H](C)NC(=O)[C@H](CCCCNC(=O)COCCOCCNC(=O)COCCOCCNC(=O)CC[C@H](NC(=O)CCCCCCCCCCCCC(=O)O)C(=O)O)NC(=O)[C@H](CCCN)NC(=O)[C@H](CC(=O)O)NC(=O)[C@H](CC(C)C)NC(=O)[C@](C)(CC(C)C)NC(=O)[C@@H](NC(=O)[C@H](CO)NC(=O)[C@H](Cc1ccncc1)NC(=O)[C@H](CC(=O)O)NC(=O)[C@H](CO)NC(=O)[C@@H](NC(=O)[C@](C)(Cc1ccccc1F)NC(=O)[C@@H](NC(=O)CNC(=O)[C@H](CCC(=O)O)NC(=O)C(C)(C)NC(=O)[C@@H](N)Cc1ccc(O)cc1)[C@@H](C)O)[C@@H](C)O)[C@@H](C)CC)[C@@H](C)CC)C(=O)N[C@@H](CCC(=O)O)C(=O)NCC(=O)NCC(=O)N[C@@H](CCCCNC(=O)COCCOCCNC(=O)COCCOCCNC(=O)CC[C@H](NC(=O)CCCCCCCCCCCCC(=O)O)C(=O)O)C(=O)N[C@@H](CO)C(=O)N[C@@H](CO)C(=O)NCC(=O)N[C@@H](C)C(=O)N1CCC[C@H]1C(=O)N1CCC[C@H]1C(=O)N1CCC[C@H]1C(=O)N[C@@H](CO)C(N)=O` [Example 169], for which the Emax on hGIPR (setting [1]) came out at 96.1%. In addition, the EC50 on hGCGR (setting [2]) is greater than 9950 nM.
The matching figures for `CC[C@H](C)[C@H](NC(=O)[C@H](CC(C)C)NC(=O)[C@](C)(Cc1ccc(O)cc1)NC(=O)[C@@H](CCC(=O)O)NC(=O)[C@@H](NC(=O)[C@H](Cc1ccccc1)NC(=O)[C@H](CCC(=O)O)NC(=O)C(C)(C)NC(=O)[C@H](CCC(N)=O)NC(=O)[C@H](C)NC(=O)[C@H](CCCCNC(=O)COCCOCCNC(=O)COCCOCCNC(=O)CC[C@H](NC(=O)CCCc1ccc(C(C)(C)C)cc1)C(=O)O)NC(=O)[C@H](CCCN)NC(=O)[C@H](CC(=O)O)NC(=O)[C@H](CC(C)C)NC(=O)[C@](C)(CC(C)C)NC(=O)[C@@H](NC(=O)C(C)(C)NC(=O)[C@@H](NC(=O)[C@H](CC(=O)O)NC(=O)[C@H](CO)NC(=O)[C@@H](NC(=O)[C@](C)(Cc1ccccc1F)NC(=O)[C@@H](NC(=O)CNC(=O)[C@H](CCC(=O)O)NC(=O)C(C)(C)NC(=O)[C@@H](N)Cc1ccc(O)cc1)[C@@H](C)O)[C@@H](C)O)C(C)C)[C@@H](C)CC)[C@@H](C)CC)C(=O)N[C@@H](CCC(=O)O)C(=O)NCC(=O)NCC(=O)N[C@@H](CCCCNC(=O)COCCOCCNC(=O)COCCOCCNC(=O)CC[C@H](NC(=O)CCCc1ccc(C(C)(C)C)cc1)C(=O)O)C(=O)N[C@@H](CO)C(=O)N[C@@H](CO)C(=O)NCC(=O)N[C@@H](C)C(=O)N1CCC[C@H]1C(=O)N1CCC[C@H]1C(=O)N1CCC[C@H]1C(=O)N[C@@H](CO)C(N)=O` [Example 177]: 113% and greater than 9950 nM.
As for `CC[C@H](C)[C@H](NC(=O)[C@H](CC(C)C)NC(=O)[C@](C)(Cc1ccc(O)cc1)NC(=O)[C@@H](CCC(=O)O)NC(=O)[C@@H](NC(=O)[C@H](Cc1ccccc1)NC(=O)[C@H](CCC(=O)O)NC(=O)C(C)(C)NC(=O)[C@H](CCC(N)=O)NC(=O)[C@H](C)NC(=O)[C@H](CCCCNC(=O)COCCOCCNC(=O)COCCOCCNC(=O)CC[C@H](NC(=O)CCCCCCCCCCCCC(=O)O)C(=O)O)NC(=O)[C@H](CCCN)NC(=O)[C@H](CC(=O)O)NC(=O)[C@H](CC(C)C)NC(=O)[C@](C)(CC(C)C)NC(=O)[C@@H](NC(=O)C(C)(C)NC(=O)[C@@H](NC(=O)[C@H](CC(=O)O)NC(=O)[C@H](CO)NC(=O)[C@@H](NC(=O)[C@](C)(Cc1ccccc1)NC(=O)[C@@H](NC(=O)CNC(=O)[C@H](CCC(=O)O)NC(=O)C(C)(C)NC(=O)[C@@H](N)Cc1ccc(O)cc1)[C@@H](C)O)[C@@H](C)O)C(C)C)[C@@H](C)CC)[C@@H](C)CC)C(=O)N[C@@H](CCC(=O)O)C(=O)NCC(=O)NCC(=O)N[C@@H](CCCCNC(=O)COCCOCCNC(=O)COCCOCCNC(=O)CC[C@H](NC(=O)CCCCCCCCCCCCC(=O)O)C(=O)O)C(=O)N[C@@H](CO)C(=O)N[C@@H](CO)C(=O)NCC(=O)N[C@@H](C)C(=O)N1CCC[C@H]1C(=O)N1CCC[C@H]1C(=O)N1CCC[C@H]1C(=O)N[C@@H](CO)C(N)=O` [Example 180], on hGIPR (setting [1]), the Emax turned out to be 86.8%. In addition, on hGCGR (setting [2]), the EC50 was greater than 9950 nM.
Take `CC[C@H](C)[C@H](NC(=O)[C@H](CCCN)NC(=O)[C@H](CC(=O)O)NC(=O)[C@H](CC(C)C)NC(=O)[C@](C)(CC(C)C)NC(=O)[C@@H](NC(=O)[C@H](CO)NC(=O)[C@H](Cc1ccncc1)NC(=O)[C@H](CC(=O)O)NC(=O)[C@H](CO)NC(=O)[C@@H](NC(=O)[C@](C)(Cc1ccccc1F)NC(=O)[C@@H](NC(=O)CNC(=O)[C@H](CCC(=O)O)NC(=O)C(C)(C)NC(=O)[C@@H](N)Cc1ccc(O)cc1)[C@@H](C)O)[C@@H](C)O)[C@@H](C)CC)C(=O)N[C@@H](C)C(=O)N[C@@H](CCC(N)=O)C(=O)NC(C)(C)C(=O)N[C@@H](CCCCNC(=O)COCCOCCNC(=O)COCCOCCNC(=O)CC[C@H](NC(=O)CCCCCCCCCOc1ccc(C(=O)O)cc1)C(=O)O)C(=O)N[C@@H](Cc1ccccc1)C(=O)N[C@H](C(=O)N[C@H](CCC(=O)O)C(=O)N[C@@](C)(Cc1ccc(O)cc1)C(=O)N[C@@H](CC(C)C)C(=O)N[C@H](C(=O)N[C@@H](CCC(=O)O)C(=O)NCC(=O)NCC(=O)N1CCC[C@H]1C(=O)N[C@@H](CO)C(=O)N[C@@H](CO)C(=O)NCC(=O)N[C@@H](C)C(=O)N1CCC[C@H]1C(=O)N1CCC[C@H]1C(=O)N1CCC[C@H]1C(=O)N[C@@H](CO)C(=O)N[C@@H](CCCCNC(=O)COCCOCCNC(=O)COCCOCCNC(=O)CC[C@H](NC(=O)CCCCCCCCCOc1ccc(C(=O)O)cc1)C(=O)O)C(N)=O)[C@@H](C)CC)[C@@H](C)CC` [Example 276]: at hGIPR (HEK293, read-out: hGIPR Emax, % ± SEM, 0.1% bovine casein and 1.0% human serum albumin, 37° C., percent of maximal response to GIP(1-42)NH2), the Emax was determined as 91.4%. In addition, the EC50 at hGIPR (hGIPR EC50, nM (SEM, n), 37° C.) is 0.0134 nM; on hGCGR (hGCGR EC50, nM (SEM, n), 0.1% bovine casein and 1.0% human serum albumin, 37° C.), greater than 9950 nM; on hGCGR (hGCGR EC50, nM (SEM, n), cAMP, 37° C., 0.1% bovine casein (no human serum albumin)), greater than 9950 nM.
As to `CC[C@H](C)[C@H](NC(=O)[C@H](CC(C)C)NC(=O)[C@](C)(Cc1ccc(O)cc1)NC(=O)[C@@H](CCC(=O)O)NC(=O)[C@@H](NC(=O)[C@H](Cc1ccccc1)NC(=O)[C@H](CCC(=O)O)NC(=O)C1(NC(=O)[C@H](CCC(N)=O)NC(=O)[C@H](C)NC(=O)[C@H](CCCCNC(=O)COCCOCCNC(=O)COCCOCCNC(=O)CC[C@H](NC(=O)CCCCCCCCCCCCC(=O)O)C(=O)O)NC(=O)[C@H](CCCN)NC(=O)[C@H](CC(=O)O)NC(=O)[C@H](CC(C)C)NC(=O)[C@](C)(CC(C)C)NC(=O)[C@@H](NC(=O)[C@H](CO)NC(=O)[C@H](Cc2ccncc2)NC(=O)[C@H](CC(=O)O)NC(=O)[C@H](CO)NC(=O)[C@@H](NC(=O)[C@](C)(Cc2ccccc2F)NC(=O)[C@@H](NC(=O)CNC(=O)[C@H](CCC(=O)O)NC(=O)C(C)(C)NC(=O)[C@@H](N)Cc2ccc(O)cc2)[C@@H](C)O)[C@@H](C)O)[C@@H](C)CC)CCCCC1)[C@@H](C)CC)C(=O)N[C@@H](CCC(=O)O)C(=O)NCC(=O)NCC(=O)N[C@@H](CCCCNC(=O)COCCOCCNC(=O)COCCOCCNC(=O)CC[C@H](NC(=O)CCCCCCCCCCCCC(=O)O)C(=O)O)C(=O)N[C@@H](CO)C(=O)N[C@@H](CO)C(=O)NCC(=O)N[C@@H](C)C(=O)N1CCC[C@H]1C(=O)N1CCC[C@H]1C(=O)N1CCC[C@H]1C(=O)N[C@@H](CO)C(N)=O` [Example 171], the Emax at hGIPR (setting [1]) came to 95.3%. Besides, the EC50 at hGIPR (setting [3]) is 0.0389 nM; at hGCGR (setting [2]), greater than 9950 nM.
The matching figures for `CC[C@H](C)[C@H](NC(=O)[C@H](CC(C)C)NC(=O)[C@](C)(Cc1ccc(O)cc1)NC(=O)[C@@H](CCC(=O)O)NC(=O)[C@@H](NC(=O)[C@H](Cc1ccccc1)NC(=O)[C@H](CCC(=O)O)NC(=O)C(C)(C)NC(=O)[C@H](CCC(N)=O)NC(=O)[C@H](C)NC(=O)[C@H](CCCCNC(=O)COCCOCCNC(=O)COCCOCCNC(=O)CC[C@H](NC(=O)CCCc1ccc(C(C)(C)C)cc1)C(=O)O)NC(=O)[C@H](CCCN)NC(=O)[C@H](CC(=O)O)NC(=O)[C@H](CC(C)C)NC(=O)[C@](C)(CC(C)C)NC(=O)[C@@H](NC(=O)C(C)(C)NC(=O)[C@@H](NC(=O)[C@H](CC(=O)O)NC(=O)[C@H](CO)NC(=O)[C@@H](NC(=O)[C@](C)(Cc1ccccc1)NC(=O)[C@@H](NC(=O)CNC(=O)[C@H](CCC(=O)O)NC(=O)C(C)(C)NC(=O)[C@@H](N)Cc1ccc(O)cc1)[C@@H](C)O)[C@@H](C)O)C(C)C)[C@@H](C)CC)[C@@H](C)CC)C(=O)N[C@@H](CCC(=O)O)C(=O)NCC(=O)NCC(=O)N[C@@H](CCCCNC(=O)COCCOCCNC(=O)COCCOCCNC(=O)CC[C@H](NC(=O)CCCc1ccc(C(C)(C)C)cc1)C(=O)O)C(=O)N[C@@H](CO)C(=O)N[C@@H](CO)C(=O)NCC(=O)N[C@@H](C)C(=O)N1CCC[C@H]1C(=O)N1CCC[C@H]1C(=O)N1CCC[C@H]1C(=O)N[C@@H](CO)C(N)=O` [Example 178]: 105%, 0.11 nM and greater than 9950 nM.
